For the data set, the system named is CYP3A. Kind of data set: Effect of dupilumab on PK of CYP substrate cocktail: midazolam. Conditions: oral cocktail before (Day 1) and during dupilumab 300 mg weekly (Day 36); n = 13. As for the experimental part: Subcutaneous dupilumab was administered as a 600 mg loading dose on Day 8, followed by a weekly dose of 300 mg from Day 15 to Day 50. PK parameters included Geometric Mean Ratios (GMR) of AUClast (area under the plasma concentration-time curve from time zero to the time of the last quantifiable concentration) and Cmax (maximum observed plasma concentration) measured at Day 1 and Day 36, while efficacy assessments included changes in Eczema Area and Severity Index (EASI) scores (scale 0-72).

In the case of `Cc1ncc2n1-c1ccc(Cl)cc1C(c1ccccc1F)=NC2` [midazolam, reference compound], the “Geometric Mean Ratio (Day 36/Day 1), AUClast” value is 0.98 and the “Geometric Mean Ratio (Day 36/Day 1), Cmax” value was found to be 1.13.

For the origin of these results see patent US10485844B2, “Methods for treating severe atopic dermatitis by administering an IL-4R inhibitor” (Regeneron Pharmaceuticals, Inc., priority 2016, dated 2019).
